# Test results reported in patent US20080081333A1, “METHYLATED PROMOTERS AS BIOMARKERS OF COLON CANCER” (UNIVERSITY OF MARYLAND, BALTIMORE, priority 2006, published 2008).
# “Also recorded” adds a separate entry of the source.
# Tests used:
# BIC = assay: 5-Aza-dC treatment of esophageal cancer cell line, qMSP and qRT-PCR; type: cell-based
# Protocol: (§1) Samples and cell lines were treated as in Example 1. Briefly, extracted DNA was treated with bisulfite to convert unmethylated cytosines to uracils prior to MSP. Promoter methylation levels of TAC1 were determined using qMSP with the ABI 7700 Sequence Detection (Taqman) System, using primers and probes described. A normalized methylation value (NMV), reflecting the percentage of DNA methylated for the gene of interest (GoI), was defined as follows: NMV=(GoI-S/GoI-FM)/(ACTB-S/ACTB-FM), where GoI-S and GoI-FM represent GoI methylation levels in the sample and fully methylated DNAs, respectively, while ACTB-S and ACTB-FM correspond to β-Actin in the sample and fully methylated DNAs, respectively.
# (§2) To determine TAC1 mRNA levels, one-step real-time quantitative RT-PCR was performed using a Qiagen QuantiTect Probe RT-PCR Kit (Qiagen, Hilden, Germany) and the ABI 7700 Sequence Detection (Taqman) System. Primers and probes are described herein. β-Actin was used to normalize data. A standard curve was generated using serial dilutions of qPCR Reference Total RNA (Clontech, Mountainview, Calif.). The normalized mRNA value (NRV) was calculated according to the following formula for relative expression of target mRNA: Expression index=(TarS/TarC)/(ACTB-S/ACTB-C, where TarS and TarC represent levels of mRNA expression for the target gene in the sample and control mRNAs, respectively, whereas ACTB-S and ACTB-C correspond to amplified ACTB levels in the sample and control mRNAs, respectively.
# (§3) To determine whether TAC1 inactivation was due to promoter hypermethylation in esophageal cancer, 2 esophageal cancer cell lines (KYSE220 and BIC) were subjected to 5-Aza-dC (Sigma, St. Louis, Mo.) treatment. Briefly, 1×10^5 cells/ml were seeded onto a 100 mm dish and grown for 24 h. Then, 1 μl of 5 mM 5-Aza-dC per ml of cells was added every 24 hours for 6 days. DNAs and RNAs were harvested on day 6.
# (§4) Samples were treated as in Examples 1 and 2. Briefly, to determine AKAP12 mRNA levels, one-step real-time quantitative RT-PCR was performed using a Qiagen QuantiTect Probe RT-PCR Kit (Qiagen, Hilden, Germany) and the ABI 7700 Sequence Detection System (Applied Biosystems, Foster City, Calif.). Primers and probe for AKAP12 were as follows: […]
# (§5) β-actin was used for normalization of data. Primers and probe for β-actin were the same as previously reported. […] Normalized mRNA value (NRV) was calculated according to the following formula for relative expression of target mRNA: NRV=(TarS/TarC)/(ACTB-S/A CTB-C, where TarS and TarC represent levels of mRNA expression for the target gene in sample and control mRNAs, respectively, while ACTB-S and ACTB-C correspond to amplified ACTB levels in sample and control mRNAs, respectively.
# HCT116 and HT29 = assay: quantitative MSP and real-time RT-PCR with and without 5-aza-dC treatment, five further genes; type: cell-based, human; settings: all five genes, in a colon cancer cell line, after 5-aza-dC treatment
# Protocol: Next, a cDNA microarray analysis of two colon cancer cell lines was performed, comparing cells treated with 5-aza-dC and untreated cells. Briefly, the colon cancer cell lines HT29 and HCT116 were seeded at a density of 4×10^5 cells per 75 cm^2 culture flask and incubated for 24 hours in growth media. The cells were then treated with 5-aza-dC in either one of the following conditions: a) 10 μM 5-aza-dC for 84 hours or b) 1 μM 5-aza-dC for 24 hours followed by 60 hours of 5-aza-dC-free growth. […]
# Tumor samples were snap frozen on dry ice and stored at −80° C. […] DNA methylation status and levels of the 4 candidate markers were determined with real-time quantitative MSP using the ABI 7900 HT Sequence Detection (Taqman) System, as described previously in Sato F., et al., Cancer Res. 62:6820-22 (2002), which is incorporated by reference. Primers and probes for quantitative MSP of (SHP-1, DcR1, RARβ, and DcR2) are disclosed in Takahashi, T. et al, Int'l J. Cancer, 118(4): 924-931 (2005), which is incorporated by reference.
# DNA methylation status and levels of 5 genes were determined with real-time quantitative MSP using the ABI 7900 HT Sequence Detection (Taqman) System, as described previously in Sato F., et al., Cancer Res. 62:6820-22 (2002), which is incorporated by reference. Primers and probes for quantitative MSP of ENG, MAL, CAV1, TAC1, SST, NELL1 and AKAP12 are below in Tables III and IV. […]
# OE33 = assay: 5-Aza-dC treatment of esophageal cancer cell line, qMSP and qRT-PCR; type: cell-based
# Protocol: as §1
# as §2, with “SST” for “TAC1”, “were the same as previously reported. 12” for “are described herein.”, “for normalization of” for “to normalize”, “NRV=(TarS/TarC)/(ACTB-S/ACTB-C),” for “Expression index=(TarS/TarC)/(ACTB-S/ACTB-C,”, “in” for “in the”
# as §3, with “SST” for “TAC1”, “OE33)” for “BIC)”, “DNA” for “DNAs”, “RNA” for “RNAs”
# as §4, §5
# HT29 and HCT116 = assay: cDNA microarray of colon cancer cell lines treated with 5-aza-dC versus untreated cells; type: cell-based, human; settings: in at least one of HT29, HCT116; 10 μM 84 hours or 1 μM 24 hours then 60 hours drug-free; log ratio greater than 0.75 (1.65-fold)
# Protocol: (§6) Next, a cDNA microarray analysis of two colon cancer cell lines was performed, comparing cells treated with 5-aza-dC and untreated cells. Briefly, the colon cancer cell lines HT29 and HCT116 were seeded at a density of 4×10^5 cells per 75 cm^2 culture flask and incubated for 24 hours in growth media. The cells were then treated with 5-aza-dC in either one of the following conditions: a) 10 μM 5-aza-dC for 84 hours or b) 1 μM 5-aza-dC for 24 hours followed by 60 hours of 5-aza-dC-free growth. These two 5-aza-dC treatment regimens were employed to obtain expression data under diverse cellular conditions: the former regimen focused on maximum DNA demethylation, while the latter regimen focused on moderate DNA demethylation to minimize damage to cell viability. […] Genes with very low expression levels in post-treatment specimens were eliminated from further analyses. The cut-off criterion was defined as median signal intensity less than median background intensity plus 1 standard deviation.
# HT29 = assay: quantitative MSP and real-time RT-PCR with and without 5-aza-dC treatment; type: cell-based, human; settings: HT29, after 5-aza-dC treatment
# Protocol: as §6
# (§7) Tumor samples were snap frozen on dry ice and stored at −80° C. After thawing, DNA was extracted from samples and treated with bisulfite prior to MSP. Briefly, DNA was extracted from all samples and treated with bisulfite to convert unmethylated cytosines to uracils prior to methylation-specific PCR (MSP) as described previously in Mori, Y., et al. Cancer Res. 64:2434-38 (2004), which is incorporated by reference. DNA methylation status and levels of the 4 candidate markers were determined with real-time quantitative MSP using the ABI 7900 HT Sequence Detection (Taqman) System, as described previously in Sato F., et al., Cancer Res. 62:6820-22 (2002), which is incorporated by reference. Primers and probes for quantitative MSP of (SHP-1, DcR1, RARβ, and DcR2) are disclosed in Takahashi, T. et al, Int'l J. Cancer, 118(4): 924-931 (2005), which is incorporated by reference.
# (§8) DNA methylation status and levels of 5 genes were determined with real-time quantitative MSP using the ABI 7900 HT Sequence Detection (Taqman) System, as described previously in Sato F., et al., Cancer Res. 62:6820-22 (2002), which is incorporated by reference. Primers and probes for quantitative MSP of ENG, MAL, CAV1, TAC1, SST, NELL1 and AKAP12 are below in Tables III and IV.
# (§9) A normalized methylation value (NMV) reflecting the percentage of DNA methylated for the gene of interest (GoI), was defined as follows: NMV=(GoI-S/GoI-FM)/(ACTB-S/ACTB-FM)*100, where GoI-S and GoI-FM represented GoI methylation levels in the Sample and Fully Methylated DNAs, respectively, while ACTB-S and ACTB-FM corresponds to β-Actin in the sample and Fully Methylated (FM) DNAs, respectively.
# (§10) Increased SST and TAC1 methylation levels was also observed in cancers relative to matched normal colonic mucosae from the resection margins (FIG. 2). […] Furthermore, we examined the correlation between promoter methylation and mRNA expression levels of SST and TAC1. For this purpose, we analyzed colon cancer cell lines with and without 5-aza-dC treatment using quantitative real-time PCR. mRNA upregulation occurred for both SST and TAC1 after promoter DNA demethylation by 5-aza-dC treatment (FIG. 4).
# HCT116 = assay: as above; type: cell-based, human; settings: HCT116, after 5-aza-dC treatment
# Protocol: as §6, §7, §8, §9, §10
# KYSE220 = assay: 5-Aza-dC treatment of esophageal cancer cell line, qMSP and qRT-PCR; type: cell-based; settings: 1 μl of 5 mM 5-Aza-dC per ml of cells every 24 hours for 6 days
# Protocol: as §1, §2
# as §2, with “SST” for “TAC1”, “were the same as previously reported. 12” for “are described herein.”, “for normalization of” for “to normalize”, “NRV=(TarS/TarC)/(ACTB-S/ACTB-C),” for “Expression index=(TarS/TarC)/(ACTB-S/ACTB-C,”, “in” for “in the”
# as §3, with “6. […]” for “6.”
# [1] = 1 μl of 5 mM 5-Aza-dC per ml of cells every 24 hours for 6 days
# [2] = OE33, 1 μl of 5 mM 5-Aza-dC per ml of cells every 24 hours for 6 days
smiles,measurement,setting,value
Nc1ncn([C@H]2C[C@H](O)[C@@H](CO)O2)c(=O)n1 [5-aza-dC],NMV of TAC1,BIC; [1],diminished
same,mRNA level (NRV) of TAC1,BIC; [1],increased
same,NMV of AKAP12,BIC; after 5-Aza-dC treatment,diminished
same,mRNA level (NRV) of AKAP12,BIC; after 5-Aza-dC treatment,increased
same,"mRNA of NELL1, CAV1, AKAP12, ENG and MAL",HCT116 and HT29,increased; also recorded: upregulation
same,"promoter region DNA methylation of NELL1, CAV1, AKAP12, ENG and MAL",HCT116 and HT29,demethylation; also recorded: decreased
same,NMV of AKAP12,"OE33; OE33, after 5-Aza-dC treatment",diminished
same,mRNA level (NRV) of AKAP12,"OE33; OE33, after 5-Aza-dC treatment",increased
same,NMV of SST,OE33; [2],diminished
same,mRNA level (NRV) of SST,OE33; [2],increased
same,genes upregulated after 5-aza-dC treatment,HT29 and HCT116,861 genes
same,SST mRNA expression index (EI),HT29,upregulation
same,SST promoter methylation index (MI),HT29,demethylation; also recorded: decreased
same,TAC1 mRNA expression index (EI),HT29,upregulation
same,TAC1 promoter methylation index (MI),HT29,demethylation; also recorded: decreased
same,SST mRNA expression index (EI),HCT116,upregulation
same,SST promoter methylation index (MI),HCT116,demethylation; also recorded: decreased
same,TAC1 mRNA expression index (EI),HCT116,upregulation
same,TAC1 promoter methylation index (MI),HCT116,demethylation; also recorded: decreased
same,NMV of SST,KYSE220,diminished
same,NMV of TAC1,KYSE220,diminished
same,mRNA level (NRV) of SST,KYSE220,increased
same,mRNA level (NRV) of TAC1,KYSE220,increased
